Results from patent US20230286978A1, “INDAZOLE DERIVATIVES AS INHIBITORS OF SARM1” (Disarm Therapeutics, Inc., priority 2020, published 2023).
pIC50: −log10 of the molar value.

What follows are molecules tested against SARM1 (Homo sapiens (Human), UniProt Q6SZW1) (assay: ARM-SAM-TIR SARM1 IC50 assay (NADase activity, RapidFire mass spectrometry)). Details: ARM-SAM-TIR lysate 5 µg/mL, 2 h pre-incubation with compound, 5 µM NAD+, 2 hr at room temperature.
SARM1, sequence (Q6SZW1 other isoform, or with tags, fused parts or gaps): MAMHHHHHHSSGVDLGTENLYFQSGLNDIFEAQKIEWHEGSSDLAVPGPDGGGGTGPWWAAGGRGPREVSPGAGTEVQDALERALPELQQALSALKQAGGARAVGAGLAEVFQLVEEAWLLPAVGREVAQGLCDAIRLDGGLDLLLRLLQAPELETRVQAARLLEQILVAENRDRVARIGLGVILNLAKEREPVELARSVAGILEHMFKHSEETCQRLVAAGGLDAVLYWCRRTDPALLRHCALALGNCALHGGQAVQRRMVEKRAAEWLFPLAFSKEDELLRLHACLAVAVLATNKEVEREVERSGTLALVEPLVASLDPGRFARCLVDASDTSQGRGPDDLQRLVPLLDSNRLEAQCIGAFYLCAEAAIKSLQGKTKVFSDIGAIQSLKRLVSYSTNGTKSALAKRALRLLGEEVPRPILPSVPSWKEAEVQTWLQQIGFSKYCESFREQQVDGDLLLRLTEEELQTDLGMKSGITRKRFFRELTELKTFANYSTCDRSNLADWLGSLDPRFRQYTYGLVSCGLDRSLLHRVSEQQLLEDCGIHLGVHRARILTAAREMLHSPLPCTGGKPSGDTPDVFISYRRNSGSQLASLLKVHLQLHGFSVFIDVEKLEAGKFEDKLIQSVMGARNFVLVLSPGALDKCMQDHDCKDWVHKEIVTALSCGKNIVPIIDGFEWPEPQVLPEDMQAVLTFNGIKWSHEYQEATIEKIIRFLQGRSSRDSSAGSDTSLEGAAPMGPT
Format: biochemical
From the text: This Example describes an assay of ARM-SAM-TIR NADase activity and use of this assay to measure the efficacy of compounds of Formula I/II to block SARM1 mediated NAD+ cleavage. This assay was optimized in such a way as to characterize the efficacy of the compounds in Formula I/IIto inhibit SARM1 activity and to calculate an IC50 value for each compound. This assay makes use of […], which encompasses the ARM, SAM and TIR domains. […] The next day, the cells were transfected with 15 μg ARM-SAM-TIR expression plasmid, SEQ ID NO: 1. The cultures were supplemented with 1 mM NR at time of transfection to minimize toxicity from ARM-SAM-TIR overexpression. Forty-eight hours after transfection, cells were harvested, pelleted by centrifugation at 1,000 rpm (Sorvall ST 16R centrifuge, Thermo Fisher), and washed once with cold PBS (0.01 M phosphate buffered saline NaCl 0.138 M; KCl 0.0027 M; pH 7.4). The cells were resuspended in PBS with protease inhibitors (cOmpleteTM protease inhibitor cocktail, Roche product # 11873580001) and cell lysates were prepared by sonication (Branson Sonifer 450, output = 3, 20 episodes of stroke). The lysates were centrifuged (12,000×g for 10 min at 4° C.) to remove cell debris and the supernatants (containing ARM-SAM-TIR protein) were stored at -80° C. for later use in the in vitro ARM-SAM-TIR NADase assay (see below). Protein concentration was determined by the Bicinchoninic (BCA) method and used to normalize lysate concentrations. The enzymatic assay was performed in a 384-well polypropylene plate in Dulbecco's PBS buffer in a final assay volume of 20 μL. […] The reaction was initiated by addition of 5 μM final assay concentration of NAD+ as substrate. After a 2 hr room temperature incubation, the reaction was terminated with 40 μL of stop solution of 7.5% trichloroactetic acid in acetonitrile. The NAD+ and ADPR concentrations were analyzed by a RapidFire High Throughput Mass Spectrometry System (Agilent Technologies, Santa Clara, CA) using an API4000 triple quadrupole mass spectrometer (AB Sciex Framingham, MA).
Work on `O=C(NCc1ccc(Cl)cc1)c1cccc2c(-c3ccncc3)n[nH]c12` [Example 1] yielded a pIC50 greater than 7.00. `O=C(NCc1ccccc1)c1cccc2c(-c3ccncc3)n[nH]c12` [Example 2] showed a pIC50 of 6.00 to 7.00. With `O=C(NCc1ccc(Cl)cc1)c1cncc2c(-c3ccncc3)n[nH]c12` [Example 4] the pIC50 was greater than 7.00. For `O=C(NCc1ccc(Cl)cc1)c1ccnc2c(-c3ccncc3)n[nH]c12` [Example 5], the pIC50 was greater than 7.00. Molecule `O=C(NCc1ccccc1)c1cncc2c(-c3ccncc3)n[nH]c12` [Example 6] has a pIC50 of 6.00 to 7.00. `O=C(NCc1ccccc1)c1ccnc2c(-c3ccncc3)n[nH]c12` [Example 7] showed a pIC50 of 5.30 to 6.00. Molecule `C[C@H](NC(=O)c1cccc2c(-c3ccncc3)n[nH]c12)c1ccc(Cl)cc1` [Example 8] has a pIC50 of less than 5.00. `O=C(NCc1ccc(Cl)nc1)c1cccc2c(-c3ccncc3)n[nH]c12` [Example 9] gave a pIC50 of 6.00 to 7.00. For `O=C(NCc1ccc(Cl)cc1)c1cccc2c(-c3ccncc3F)n[nH]c12` [Example 10], the pIC50 was greater than 7.00. `O=C(NCc1ccc(Cl)c(F)c1)c1cccc2c(-c3ccncc3F)n[nH]c12` [Example 12] was tested, and the pIC50 was greater than 7.00. `O=C(NCc1ccc(Cl)s1)c1cccc2c(-c3ccncc3F)n[nH]c12` [Example 13] gave a pIC50 of 6.00 to 7.00.
